Measured values reported in US11485714B2, “Hydroxyethylamine-based piperazine compounds, and methods of producing and using the same for treating disease” (National Institute of Immunology, priority 2020, dated 2022).
Like-named read-outs stand apart in the source and are kept apart here. Marks after values point to notes of the source that are not given here.

Experiments:
[1] = In vivo acute toxicity study and pathological examination; parameters: species or system BALB/C mice
Excerpt: Again mice were randomly divided in two groups. Each group consisted of 3 mice.
Mice were divided into two groups of three mice. […] Again Mice were randomly divided in two groups. Each group consisted of 3 mice. […] Serum was taken for biochemistry studies.

[2] = tested on: Plasmodium berghei NK-65 (chloroquine-resistant); assay: In vivo blood stage mouse model, modified Peters four-day suppressive test
Experimental: Specifically, a murine model of malaria was developed wherein thirty healthy Swiss albino mice were inoculated intraperitoneally with 1×10^7 Plasmodium berghei NK-65 (chloroquine-resistant) infected red blood cells (RBCs) suspended in RPMI 1640 medium (commercially available from Thermo Fisher Scientific Inc.; 200 μL). A first set of the infected mice was treated each day with a single dose of 50 mg/kg of Compound I, and a second set was not treated. The survival of the mice was monitored to day 30 post-infection using a Kaplan-Meier survival analysis, and the statistical difference in animal survival was analyzed by a log rank test. Representative data for the percent parasitemia for untreated mice (control) and mice treated with Compound I are shown in Table 4 and FIG. 2A and FIG. 2B.
Activity of Compound I (Calxinin) was tested using a slightly modified version of Peter's 4-day suppressive test: initial infection of mice with P. berghei parasites, followed one dose 50 mg/kg of drug treatment, followed by monitoring of parasitemia as well as external signs of disease progression for up to 10 days.
10^7 Plasmodium berghei NK-65 (CQ-resistant) were administered by i.p into Swiss albino mice (6 mice/group). Infected mice were either treated with Compound I (Calxinin) or injected with DMSO alone (untreated vehicle control). […] The survival of the mice was followed up to day 30 post-infection using Kaplan-Meier survival analysis (FIG. 6B). Animal survival was analyzed by a log rank test.

[3] = In vitro cytotoxicity, HEK293 (Alamar Blue); assay type: cell-based; details: human, HEK293 cells; read-out: CC50 (50% cell toxicity)
Experimental: (§1) In addition, the cell viability of Huh 7 and HEK293 cells was evaluated post drug exposure using the Alamar Blue assay [Riss, Terry L., et al. “Cell viability assays.” Assay Guidance Manual [Intenet]. Eli Lilly & Company and the National Centre for Advancing Translational Sciences, 2016]. Cells ([…]) were exposed to varying concentrations of test compounds, for 24 hours in 96-well plate format along with 10/100 μL Alamar Blue solution (10×=4.8 mM in phosphate buffer) per well. […] Results from the cytotoxicity assays were expressed as CC50 at which 50% of the cells died/metabolically slowed down due to drug exposure compared to the non-treated and vehicular control.
(§2) The cytotoxicity of Compound I was tested by exposing peripheral blood mononuclear cells (PBMCs) to drug concentrations corresponding to averages of both Pf3D7 and PfDd2 IC50 values. This was intended to establish whether the observed antiparasitic effects of the compounds were due to non-specific inhibitory activity. […] The IC50 required for killing the parasite is <90 nM. Therefore, in order to be toxic for human cells we have to use over 650 fold concentration.

[4] = tested on: P. berghei ANKA sporozoites; assay: Liver-stage infection in mice by mosquito bites, treatment and survival; assay type: in vivo
Experimental: [1] Liver-stage infection in mice, treatment and survival assay: GFP-expressing P. berghei ANKA were grown in Anopheles stephensi mosquitoes in the insectary at National Institute of Immunology (New Delhi, India). Sporozoite count per salivary gland and infectivity was determined before the experimental infection of mice by the mosquito bites. Briefly, anaesthetized mice were exposed to a cage of sporozoite carrying starved mosquitoes (100 mosquito/5 mouse) for 15 minutes with intermittent disturbing of mosquito every 2-3 minute in order to encourage biting and injection of more sporozoite. Biting was done at 22+1° C. and dark condition maintained in an incubator. First dose (10 mg/Kg) was given 24 hours before the infection, second dose was given two hours post sporozoite challenge (biting) drug was given intraperitonially (I.P). Remaining dosages were given 24 h post challenge.
[2] For calculating parasite load, liver of experimental mice were isolated 50 h post infection. Mice were anesthetized, abdominal area sterilized with 70% ethanol and liver dissected out. Liver was homogenized in precold denaturating solution. RNAs were isolated from the homogenized sample followed by Real Time polymerase chain reaction (PCR).
Prompted by the notable in vitro liver stage activity, mice were infected with sporozoites through mosquito bites to test the efficacy of Compound I on liver stage infection in mouse models. The infected mice were treated with fixed dose of 10 mg/kg for three days. Liver stage P. berghei parasites mature into merozoites in about 55 hours. […] To understand the pre-patient period and delay, the starting of blood stage parasite infection was monitored after three days post challenge by observing Giemsa stained smears. […] Single day delay in blood stage infection corresponds to about 10-fold decrease in liver parasite burden. Experimental mice were kept for survival studies after treatment with Compound 1 (10 mg/kg) and death day was noted.
The percentage of parasitemia remained low until day 7 post-sporozoite challenges.

[5] = tested on: Leishmania donovani amastigotes; assay: Anti-leishmania activity, amastigotes in THP-1 macrophages; assay type: cell-based; details: 96 hours, read-out: IC50, L. donovani amastigotes in THP-1 macrophages
Experimental: To test the anti-leishmania activity, Leishmania donovani strains: L. donovani reporter expressing red fluorescent protein, DsRed2 transgenic L. donovani (LV82)15, obtained from Ohio State University. Columbus (OSUMC). Extracellular (Promastigotes) L. donovani parasites were maintained in M199 media supplemented with 15% heat-inactivated fetal bovine serum (HI-FBS), 20 mM HEPES, 100 U/ml of penicillin and streptomycin at pH 5.5 with 5% CO2. Cultures were constantly maintained in a 25° C. incubator. Anti-leishmanial activity was determined by incubating exponentially growing log-phase promastigotes with THP-1 macrophage for 24 h to infect. Following this, plates were washed to remove the uninfected promastigotes, STD drug and Calxinin were treated 96-well plates for 96 hours. Miltefosine and paromomycin, standard medications, serve as a positive control at equivalent concentrations. Morphological alterations in the amastigotes following treatment with drugs, were examined by fluorescent microscopy. Images were analyzed for percent parasite survival upon drug treatment and enumerated the IC50. The inhibition curve of Compound I was very similar to Amphotericin B (AmpB) and lower than the 2 standard drugs.

[6] = tested on: P. falciparum CQ-resistant (PfDd2); assay: SYBR Green I assay, asynchronous cultures, CQ-resistant clone; assay type: cell-based; details: Plasmodium falciparum
[7] = In vitro cytotoxicity, Huh 7.1 (Alamar Blue); assay type: cell-based; details: human, Huh 7.1 cells; read-out: CC50 (50% cell toxicity)
Experimental: as §1, §2

## NC(Cc1ccccc1)C(O)CN1CCN(Cc2ccc(C(F)(F)F)cc2)CC1 (centres unmarked) [Compound I]
[1]; 300 mg/kg oral for four consecutive days
  pathological examination of liver, kidney, stomach: does not indicate an increase or decrease of Kuepfer cells in the liver, loss of structural integrity in the kidney or lining of stomach
[1]; 1200 mg/kg (300 mg/kg for four consecutive days)
  toxicity overall: no indication of toxicity
[1]; oral
  behavior: no behavior changes were observed
  body weight: remained constant
  motor and feeding activities: normal
[2]; 50 mg/kg/day (single dose), NK64 strain
  activity against mixed blood stages: significant activity
[2]; Table 4, 50 mg/kg each day
  Percent Parasitemia Day 3: 0.21 ** (P < 0.001)
  Percent Parasitemia Day 7: 2.45 * (P < 0.03)
  Percent Parasitemia Day 10: 12.3 * (P < 0.01)
[2]; Table 5, one dose 50 mg/kg
  % Parasitemia Day 3: 0.21 ** (P < 0.001) %
  % Parasitemia Day 7: 2.45 * (P < 0.03) %
  % Parasitemia Day 10: 12.3 * (P < 0.01) %
[2]; single dose 10 mg/kg, P. berghei NK64, mixed blood stage parasites
  reduction in parasite load: 30%
[3]
  CC50 at 24 h: 60200 nM
[4]; 10 mg/kg
  Mean survival time (MST): about 9 days
  decrease in liver parasite burden corresponding to the delay: about 10 fold
  delay in the prepatent period: One day's delay
[4]; 10 mg/kg for three days, I.P
  inhibition of liver stage infection in mice: 30%
[5]
  IC50: 79.8 nM
[6]; 72 h, read-out: PfDd2 IC50, nM (±SD)
  IC50: 88 nM
[6]; DD2, read-out: IC50 against asexual stages, drug resistant (CQ-resistant) DD2
  IC50: 88 nM
[6]; read-out: mean half maximal inhibitory concentration (IC50) for PfDd2
  IC50: 88 nM
[7]
  CC50 at 24 h: 100000 nM
